Assay type in all cases: in vivo
In one assay the test system is ABUTH. The experiment in a line: Pre-emergence biological efficacy (Table 3). As to conditions: after 13 days; for pest or weed control at 1000 g/ha: Abutilon theophrasti, 312 h, read-out: evaluation (100=total damage to plant; 0=no damage to plant). Here is the method:
(§1) Seeds of weeds and/or crops were sown in standard soil in pots. After cultivation for one day under controlled conditions in a glasshouse (at 24/19° C., day/night; 16 hours light), the plants were sprayed with an aqueous spray solution derived from the formulation of the technical active ingredient in a small amount of acetone and a special solvent and emulsifier mixture referred to as AMA (11.12% Emulsogen EL360 TM+44.44% N-methylpyrrolidone+44.44% Dowanol DPM glycol ether), to create a 50 g/l solution which was then diluted using 0.2% Genapol X080 as diluent to give the desired final dose of test compound.
(§2) The test plants were then grown under controlled conditions in the glasshouse (at 24/18° C., day/night; 15 hours light; 50% humidity) and watered twice daily. After 13 days the test was evaluated (100=total damage to plant; 0=no damage to plant).

For another assay, the system named is AMARE. The experiment in a line: Pre-emergence biological efficacy (Table 3). As to conditions: 1000 g/ha, after 13 days; for pest or weed control at 1000 g/ha: Amaranthus retroflexus, 312 h, read-out: evaluation (100=total damage to plant; 0=no damage to plant). Here is the method: as §1, §2
The subject of another assay is ECHCG. Nature of the assay: Pre-emergence biological efficacy (Table 3). The conditions noted are these: Echinochloa crus-galli, 312 h, 1000 g/ha, after 13 days, read-out: evaluation (100=total damage to plant; 0=no damage to plant). On the procedure: as §1, §2
The test system of the next assay is IPOHE. Nature of the assay: Pre-emergence biological efficacy (Table 3). As to conditions: 1000 g/ha, after 13 days; for pest or weed control at 1000 g/ha: Ipomoea hederacea, 312 h, read-out: evaluation (100=total damage to plant; 0=no damage to plant). Here is the method: as §1, §2
The test system of the next assay is STEME. Nature of the assay: Pre-emergence biological efficacy (Table 3). The conditions noted are these: after 13 days; for pest or weed control at 1000 g/ha: 312 h, read-out: evaluation (100=total damage to plant; 0=no damage to plant). Here is the method:
as §1, §2

The subject of the next assay is ZEAMX. Nature of the assay: Pre-emergence biological efficacy (Table 3). The conditions noted are these: 1000 g/ha, after 13 days; for plant injury at 1000 g/ha: 312 h, read-out: evaluation (100=total damage to plant; 0=no damage to plant). Here is the method: as §1, §2
A further assay concerns weeds and/or crops. Nature of the assay: Post-emergence biological efficacy (Table 4). As to conditions: 1000 g/ha, evaluated after 13 days; for pest or weed control at 1000 g/ha: 312 h. On the procedure:
as §1, with “14 days” for “one day”, “F50” for “AMA”
as §2

Where [1] appears, read: STEME, read-out: damage to plant STEME (100=total damage; 0=no damage).
Setting [2] is: ZEAMX, read-out: damage to plant ZEAMX (100=total damage; 0=no damage).
Setting [3] is: Abutilon theophrasti, ABUTH, read-out: damage to plant ABUTH (100=total damage; 0=no damage).
[4] abbreviates: Amaranthus retroflexus, AMARE, read-out: damage to plant AMARE (100=total damage; 0=no damage).
Setting [5] is: Ipomoea hederacea, IPOHE, read-out: damage to plant IPOHE (100=total damage; 0=no damage).
[6] abbreviates: Echinochloa crus-galli, ECHCG, read-out: damage to plant ECHCG (100=total damage; 0=no damage).

Like-named read-outs stand apart in the source and are kept apart here.

On to `COc1ccc(Cl)c(C(F)(F)C(=O)O)c1` [Compound 1-62, 2-(2-Chloro-5-methoxyphenyl)-2,2-difluoroacetic acid], for which the pest or weed control at 1000 g/ha in the assay on ABUTH worked out at 50%; with AMARE, 80%; in the assay with ECHCG it was 30%; with IPOHE, 20%; in the assay on STEME it was 80%; with weeds and/or crops (setting [1]), 60%. Besides, the pest or weed control at 1000 g/ha in the assay on weeds and/or crops (setting [2]) was determined as 20%; in the assay with weeds and/or crops (setting [3]), 20%; with weeds and/or crops (setting [4]), 60%; in the assay on weeds and/or crops (setting [5]), 70%. For the same compound, the plant injury at 1000 g/ha with ZEAMX was found to be 20%.
In the case of `Nc1ccc(Cl)c(C(F)(F)C(=O)O)c1` [Compound 1-63, 2-(5-Amino-2-chloro-phenyl)-2,2-difluoro-acetic acid], the pest or weed control at 1000 g/ha in the assay on ABUTH, with AMARE, in the assay on ECHCG, in the assay with IPOHE, in the assay on STEME and in the assay on weeds and/or crops (setting [1]) was 0% each time. Also, the pest or weed control at 1000 g/ha is 0% in the assay on weeds and/or crops (setting [2]); 10% with weeds and/or crops (setting [3]); 20% in the assay with weeds and/or crops (setting [4]); 10% with weeds and/or crops (setting [6]); 20% in the assay on weeds and/or crops (setting [5]). The plant injury at 1000 g/ha in the assay with ZEAMX amounted to 0%.
`Nc1c(Cl)cc(Cl)c(Cl)c1C(F)(F)C(=O)O` [Compound 1-81, 2-(2-Amino-3,5,6-trichloro-phenyl)-2,2-difluoro-acetic acid]: the pest or weed control at 1000 g/ha with ABUTH was found to be 20%; in the assay with AMARE it was 30%; in the assay on ECHCG it was 0%; with IPOHE it was 10%; in the assay with STEME it was 20%; in the assay with weeds and/or crops (setting [1]), 50%. Moreover, the pest or weed control at 1000 g/ha is 0% in the assay with weeds and/or crops (setting [2]); 20% in the assay on weeds and/or crops (setting [3]); 50% in the assay with weeds and/or crops (setting [4]); 10% with weeds and/or crops (setting [6]); 50% in the assay on weeds and/or crops (setting [5]). Besides, the plant injury at 1000 g/ha in the assay with ZEAMX turned out to be 0%.
Regarding `Nc1ccc(Cl)c(C(F)(F)C(=O)O)c1Cl` [Compound 1-236, 2-(3-Amino-2,6-dichloro-phenyl)-2,2-difluoro-acetic acid], the pest or weed control at 1000 g/ha was found to be 0% in the assay with ABUTH; 20% with AMARE; 0% in the assay with ECHCG; 0% with IPOHE; 0% with STEME; 10% with weeds and/or crops (setting [1]). The pest or weed control at 1000 g/ha in the assay on weeds and/or crops (setting [2]) is 10%; in the assay on weeds and/or crops (setting [3]), 0%; in the assay on weeds and/or crops (setting [4]), 30%; in the assay with weeds and/or crops (setting [6]), 0%; in the assay on weeds and/or crops (setting [5]), 30%.
Take `CSc1c(C(F)(F)C(=O)O)ccc(Br)c1Cl` [Compound 1-359, 2-(4-Bromo-3-chloro-2-methylsulfanyl-phenyl)-2,2-difluoro-acetic acid]: the pest or weed control at 1000 g/ha with ABUTH worked out at 0%; in the assay on AMARE, 10%; in the assay on IPOHE it was 0%; with STEME, 0%; in the assay with weeds and/or crops (setting [1]) it was 0%; with weeds and/or crops (setting [2]) it was 20%. The pest or weed control at 1000 g/ha in the assay on weeds and/or crops (setting [3]), in the assay on weeds and/or crops (setting [4]) and with weeds and/or crops (setting [5]) was 10% throughout. Besides, in the assay on ZEAMX, the plant injury at 1000 g/ha was 10%.
For the compound `O=C(O)C(F)(F)c1cccc2cccnc12` [Compound 1-403, 2,2-Difluoro-2-(quinoline-8-yl)acetic acid], the pest or weed control at 1000 g/ha in the assay on ABUTH turned out to be 80%; in the assay on AMARE it was 80%; in the assay on IPOHE it was 90%; in the assay with STEME it was 70%; with weeds and/or crops (setting [1]) it was 80%; with weeds and/or crops (setting [2]) it was 20%. For the same compound, the pest or weed control at 1000 g/ha stood at 80% in the assay on weeds and/or crops (setting [3]), 90% in the assay with weeds and/or crops (setting [4]) and 70% in the assay on weeds and/or crops (setting [5]). Also, the plant injury at 1000 g/ha in the assay with ZEAMX came to 30%.
As for `CCOC(=O)C(F)(F)c1c(Cl)cccc1[N+](=O)[O-]` [Compound 3-67, Ethyl 2-(2-chloro-6-nitrophenyl)-2,2-difluoroacetate], the pest or weed control at 1000 g/ha is 0% in the assay on ABUTH; 10% in the assay with AMARE; 20% in the assay with IPOHE; 10% with STEME; 0% with weeds and/or crops (setting [1]); 20% in the assay with weeds and/or crops (setting [2]). In addition, the pest or weed control at 1000 g/ha in the assay on weeds and/or crops (setting [3]) is 10%; in the assay with weeds and/or crops (setting [4]), 50%; with weeds and/or crops (setting [5]), 50%. The plant injury at 1000 g/ha with ZEAMX came out at 0%.
For `CCOC(=O)C(F)(F)c1c(F)ccc(F)c1O` [Compound 3-297, Ethyl 2-(3,6-difluoro-2-hydroxyphenyl)-2,2-difluoroacetate], the pest or weed control at 1000 g/ha in the assay with ABUTH worked out at 0%; in the assay with AMARE, 0%; in the assay with IPOHE, 0%; in the assay with STEME, 0%; in the assay with weeds and/or crops (setting [1]) it was 0%; in the assay on weeds and/or crops (setting [2]), 20%. In addition, the pest or weed control at 1000 g/ha with weeds and/or crops (setting [3]), in the assay with weeds and/or crops (setting [4]) and in the assay with weeds and/or crops (setting [5]) was 10% throughout. For the same compound, the plant injury at 1000 g/ha with ZEAMX came to 0%.
On to `Nc1ccc(Cl)cc1C(F)(F)C(=O)[O-].[Li+]` [Compound 5-251, Lithium;2-(2-amino-5-chloro-phenyl)-2,2-difluoro-acetate], for which the “evaluation (100=total damage to plant; 0=no damage to plant)” value was 10 in the assay on ABUTH (1000 g/ha); 20 in the assay with AMARE; 0 in the assay on IPOHE; 10 in the assay with STEME (1000 g/ha); 0 in the assay on ZEAMX. Further, the “damage to plant ABUTH (100=total damage; 0=no damage)” value in the assay on weeds and/or crops (ABUTH) was 20. Moreover, the “damage to plant AMARE (100=total damage; 0=no damage)” value in the assay with weeds and/or crops (AMARE) is given as 40. The “damage to plant ECHCG (100=total damage; 0=no damage)” value with weeds and/or crops (ECHCG) amounted to 0. The “damage to plant IPOHE (100=total damage; 0=no damage)” value with weeds and/or crops (IPOHE) is reported as 20. The “damage to plant STEME (100=total damage; 0=no damage)” value with weeds and/or crops (STEME) amounted to 20. The “damage to plant ZEAMX (100=total damage; 0=no damage)” value in the assay with weeds and/or crops (ZEAMX) was determined as 0.
For the compound `COc1c(Cl)ccc(F)c1C(F)(F)C(=O)O` [Compound 7-325, 2-(3-Chloro-6-fluoro-2-methoxyphenyl)-2,2-difluoroacetic acid], the pest or weed control at 1000 g/ha in the assay on ABUTH stood at 20%; in the assay with AMARE, 50%; in the assay with IPOHE, 50%; in the assay with STEME, 30%; in the assay on weeds and/or crops (setting [1]), 60%; in the assay on weeds and/or crops (setting [2]) it was 20%. Further, the pest or weed control at 1000 g/ha in the assay with weeds and/or crops (setting [3]) came to 50%; in the assay with weeds and/or crops (setting [4]) it was 60%; in the assay with weeds and/or crops (setting [5]) it was 50%. Moreover, the plant injury at 1000 g/ha in the assay with ZEAMX was 10%.

These data come from patent US20240251792A1, “WEED CONTROL METHOD” (SYNGENTA CROP PROTECTION AG, priority 2021, published 2024).
